Measurements taken from US9980945B2, “Benzoisoxazole-substituted compounds as MGLUR4 allosteric potentiators, compositions, and methods of treating neurological dysfunction” (Vanderbilt University, priority 2015, dated 2018).

Target: mGluR4 (UniProt Q14833)
Test: mGluR4 potentiation assay (EC50 for potentiation at EC20 agonist; fluorometric plate reader, Ca2+ or thallium dye)
Type: cell-based
Details: potentiation of mGluR4; species of receptor not given
In short: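 CHO cells expressing human mGluR4, or HEK cells co-expressing rat mGluR4 and GIRK, loaded with Ca2+ or thallium dye. Potentiation EC50 and maximal potentiation from non-linear curve fitting; agonist-shift mode also run.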

CC(C)(C)Cc1noc2c(F)c(Nc3n[nH]c4cccnc34)ccc12 [Example 163, 3-(2,2-dimethylpropyl)-7-fluoro-N-(1H-pyrazolo[4,3-b]pyridin-3-yl)-1,2-benzoxazol-6-amine]
EC50: > 30000 nM

CC(C)(C)Cc1noc2c(F)c(Nc3n[nH]c4nccnc34)ccc12 [Example 164, 3-(2,2-dimethylpropyl)-7-fluoro-N-(1H-pyrazolo[3,4-b]pyrazin-3-yl)-1,2-benzoxazol-6-amine]
EC50: > 30000 nM

CC(c1ccccn1)N(C)C(=O)Cc1noc2cc(Nc3n[nH]c4cccnc34)ccc12 (centres unmarked) [Example 165, N-methyl-2-[6-(1H-pyrazolo[4,3-b]pyridin-3-ylamino)-1,2-benzoxazol-3-yl]-N-[1-(2-pyridyl)ethyl]acetamide]
EC50: 2300 nM

COc1ncc(Cc2noc3cc(Nc4n[nH]c5cccnc45)ccc23)cn1 [Example 166, 3-[(2-methoxypyrimidin-5-yl)methyl]-N-(1H-pyrazolo[4,3-b]pyridin-3-yl)-1,2-benzoxazol-6-amine]
EC50: 387 nM

CC(C)(C)Cc1noc2cc(Nc3n[nH]c4cccnc34)c(F)cc12 [Example 167, 3-(2,2-dimethylpropyl)-5-fluoro-N-(1H-pyrazolo[4,3-b]pyridin-3-yl)-1,2-benzoxazol-6-amine]
EC50: > 30000 nM

c1cncc(OCc2noc3cc(Nc4n[nH]c5cccnc45)ccc23)c1 [Example 169, N-(1H-pyrazolo[4,3-b]pyridin-3-yl)-3-(3-pyridyloxymethyl)-1,2-benzoxazol-6-amine]
EC50: > 30000 nM

CC(C)(C)Cc1noc2cc(Nc3n[nH]c4cccnc34)cnc12 [Example 171, 3-(2,2-dimethylpropyl)-N-(1H-pyrazolo[4,3-b]pyridin-3-yl)isoxazolo[4,5-b]pyridin-6-amine]
EC50: 801 nM

Cc1ccc(OCc2noc3cc(Nc4n[nH]c5cccnc45)ccc23)cn1 [Example 175, 3-[(6-methyl-3-pyridyl)oxymethyl]-N-(1H-pyrazolo[4,3-b]pyridin-3-yl)-1,2-benzoxazol-6-amine]
EC50: 588 nM

Fc1cncc(OCc2noc3cc(Nc4n[nH]c5cccnc45)ccc23)c1 [Example 176, 3-[(5-fluoro-3-pyridyl)oxymethyl]-N-(1H-pyrazolo[4,3-b]pyridin-3-yl)-1,2-benzoxazol-6-amine]
EC50: 767 nM

FCCc1noc2cc(Nc3n[nH]c4cccnc34)ccc12 [Example 177, 3-(2-fluoroethyl)-N-(1H-pyrazolo[4,3-b]pyridin-3-yl)-1,2-benzoxazol-6-amine]
EC50: 890 nM

CC(c1noc2cc(Nc3n[nH]c4cccnc34)ccc12)C(F)F (centres unmarked) [Example 178, 3-(2,2-difluoro-1-methyl-ethyl)-N-(1H-pyrazolo[4,3-b]pyridin-3-yl)-1,2-benzoxazol-6-amine]
EC50: 1710 nM

CCC(F)(F)c1noc2cc(Nc3n[nH]c4cccnc34)ccc12 [Example 179, 3-(1,1-difluoropropyl)-N-(1H-pyrazolo[4,3-b]pyridin-3-yl)-1,2-benzoxazol-6-amine]
EC50: 1990 nM

CCCCNC(c1noc2cc(Nc3n[nH]c4cccnc34)ccc12)C(F)(F)F (centres unmarked) [Example 180, 3-[1-(butylamino)-2,2,2-trifluoro-ethyl]-N-(1H-pyrazolo[4,3-b]pyridin-3-yl)-1,2-benzoxazol-6-amine; 2,2,2-trifluoroacetic acid]
EC50: 810 nM

CC(C)(C)CNC(c1noc2cc(Nc3n[nH]c4cccnc34)ccc12)C(F)(F)F (centres unmarked) [Example 181, 3-[1-(2,2-dimethylpropylamino)-2,2,2-trifluoro-ethyl]-N-(1H-pyrazolo[4,3-b]pyridin-3-yl)-1,2-benzoxazol-6-amine; 2,2,2-trifluoroacetic acid]
EC50: 1500 nM
